Experimental data from PubChem BioAssay (NCI).
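Five compound concentrations were applied to cells in 96-well plates for 48 hours; endpoints were derived by simple linear interpolation of the resulting dose-response curve. TGI marks complete inhibition of growth.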

Columns and labels:
Experiment in all cases: growth of human tumour cells (NCI), 48 h
[1] = test system: 786-0 renal
[2] = test system: A498 renal
[3] = test system: A549 NSCLC
[4] = test system: ACHN renal
[5] = test system: CCRF-CEM leukemia
[6] = test system: COLO 205 colon
[7] = test system: DLD-1 colon
[8] = test system: DMS 114 small cell lung
[9] = test system: DMS 273 small cell lung
[10] = test system: EKVX NSCLC
[11] = test system: HCC-2998 colon
[12] = test system: HCT-116 colon
[13] = test system: HCT-15 colon
[14] = test system: HL-60(TB) leukemia
[15] = test system: HOP-62 NSCLC
[16] = test system: HOP-92 NSCLC
[17] = test system: HT29 colon
[18] = test system: IGROV1 ovarian
[19] = test system: K-562 leukemia
[20] = test system: KM12 colon
[21] = test system: KM20L2 colon
[22] = test system: LOX IMVI melanoma
[23] = test system: LXFL 529 NSCLC
[24] = test system: M14 melanoma
[25] = test system: M19-MEL melanoma
[26] = test system: MALME-3M melanoma
[27] = test system: MOLT-4 leukemia
[28] = test system: NCI-H23 lung
[29] = test system: NCI-H460 lung
[30] = test system: OVCAR-3 ovarian
[31] = test system: OVCAR-4 ovarian
[32] = test system: OVCAR-8 ovarian
[33] = test system: RPMI-8226 leukemia
[34] = test system: RXF 393 renal
[35] = test system: SF-268 CNS
[36] = test system: SF-295 CNS
[37] = test system: SF-539 CNS
[38] = test system: SK-MEL-2 melanoma
[39] = test system: SK-MEL-28 melanoma
[40] = test system: SK-OV-3 ovarian
[41] = test system: SN12C renal
[42] = test system: SNB-19 CNS
[43] = test system: SNB-78 CNS
[44] = test system: SW-620 colon
[45] = test system: TK-10 renal
[46] = test system: U251 CNS
[47] = test system: UACC-257 melanoma
[48] = test system: UACC-62 melanoma
[49] = test system: UO-31 renal
[50] = test system: CAKI-1 renal
[51] = test system: NCI-H522 lung
[52] = test system: OVCAR-5 ovarian
[53] = test system: SK-MEL-5 melanoma
[54] = test system: SNB-75 CNS
[55] = test system: SR leukemia
[56] = test system: XF 498 CNS

Measured: TGI

CC1=NC=C(O)c2ccccc2O1
not listed: [50] | [51] | [52] | [53] | [54] | [55] | [56]
> 100 µM: all other assays above

O=C1Oc2cc3c(c4cccc1c24)OCN(c1ccccc1)C3
86.2 µM: [5]
56.9 µM: [51]
63 µM: [19]
not listed: [37] | [43]
> 100 µM: all other assays above
